From PubChem BioAssay AID2060495 (Molecular Pharmacology Branch, DTP, NCI, 2025)

System: 521955-158-R2-J5-PDC complex spheroid viability
Experiment: Anticancer human tumor 521955-158-R2-J5-PDC patient-derived pancreatic carcinoma cell line growth inhibition [GQUAD]
Settings: for IC50: curve of first compound; for viability, T/C: stronger effect = lower value
Method in brief: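 Viability of tumor cells grown as complex spheroids with endothelial and stromal cells, exposed to drug combinations. Top concentration at or near clinical Cmax (else 10 microM), diluted in half-log increments.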

[1] = second compound 0.0316 µM, first compound 0.0316 µM
[2] = second compound 0.0316 µM, first compound 0.1 µM
[3] = second compound 0.0316 µM, first compound 0.316 µM
[4] = second compound 0.0316 µM, first compound 1 µM
[5] = second compound 0.0316 µM, first compound 3.16 µM
[6] = second compound 0.0316 µM, first compound 10 µM
[7] = second compound 0.1 µM, first compound 0.0316 µM
[8] = second compound 0.1 µM, first compound 0.1 µM
[9] = second compound 0.1 µM, first compound 0.316 µM
[10] = second compound 0.1 µM, first compound 1 µM
[11] = second compound 0.1 µM, first compound 3.16 µM
[12] = second compound 0.1 µM, first compound 10 µM
[13] = second compound 0.316 µM, first compound 0.0316 µM
[14] = second compound 0.316 µM, first compound 0.1 µM
[15] = second compound 0.316 µM, first compound 0.316 µM
[16] = second compound 0.316 µM, first compound 1 µM
[17] = second compound 0.316 µM, first compound 3.16 µM
[18] = second compound 0.316 µM, first compound 10 µM
[19] = second compound 1 µM, first compound 0.0316 µM
[20] = second compound 1 µM, first compound 0.1 µM
[21] = second compound 1 µM, first compound 0.316 µM
[22] = second compound 1 µM, first compound 1 µM
[23] = second compound 1 µM, first compound 3.16 µM
[24] = second compound 1 µM, first compound 10 µM
[25] = second compound 3.16 µM, first compound 0.0316 µM
[26] = second compound 3.16 µM, first compound 0.1 µM
[27] = second compound 3.16 µM, first compound 0.316 µM
[28] = second compound 3.16 µM, first compound 1 µM
[29] = second compound 3.16 µM, first compound 3.16 µM
[30] = second compound 3.16 µM, first compound 10 µM
[31] = second compound 10 µM, first compound 0.0316 µM
[32] = second compound 10 µM, first compound 0.1 µM
[33] = second compound 10 µM, first compound 0.316 µM
[34] = second compound 10 µM, first compound 1 µM
[35] = second compound 10 µM, first compound 3.16 µM
[36] = second compound 10 µM, first compound 10 µM
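Note: spheroids exposed to agents for one week before reading.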
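Throughout, for viability, T/C: 100% = DMSO vehicle control viability.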

For O=C(NO)c1cnc(N2CCN(S(=O)(=O)c3ccc4ccccc4c3)CC2)nc1 + Cc1[nH]c2ccc(F)cc2c1-c1nc2c3cccnc3c3ncccc3c2[nH]1, the IC50 (second compound 0.0316 µM) was 0.758 µM, the IC50 (second compound 0.1 µM) was 0.966 µM and the IC50 (second compound 0.316 µM) was 1.43 µM. For the same molecule, the IC50 (second compound 1 µM) was 1.38 µM, the IC50 (second compound 3.16 µM) was 1.49 µM and the IC50 (second compound 10 µM) was 1.76 µM. For the same molecule, the viability, T/C [1] was 115%, the viability, T/C [2] was 124% and the viability, T/C [3] was 84.3%. The viability, T/C [4] was 41.8%, the viability, T/C [5] was 0.18% and the viability, T/C [6] was 0.17%. The viability, T/C [7] was 99.1%, the viability, T/C [8] was 142% and the viability, T/C [9] was 111%. It also gave a viability, T/C [10] of 48.5%, a viability, T/C [11] of 0.18% and a viability, T/C [12] of 0.23%. For the same molecule, the viability, T/C [13] was 100%, the viability, T/C [14] was 137% and the viability, T/C [15] was 113%. It also gave a viability, T/C [16] of 72.3%, a viability, T/C [17] of 0.17% and a viability, T/C [18] of 0.17%. The viability, T/C [19] was 101%, the viability, T/C [20] was 132% and the viability, T/C [21] was 120%. It also gave a viability, T/C [22] of 69.3%, a viability, T/C [23] of 0.29% and a viability, T/C [24] of 0.13%. The viability, T/C [25] was 96.8%, the viability, T/C [26] was 123% and the viability, T/C [27] was 105%. For the same molecule, the viability, T/C [28] was 75.9%, the viability, T/C [29] was 0.29% and the viability, T/C [30] was 0.48%. For the same molecule, the viability, T/C [31] was 99.1%, the viability, T/C [32] was 106% and the viability, T/C [33] was 101%. It also gave a viability, T/C [34] of 97.8%, a viability, T/C [35] of 0.55% and a viability, T/C [36] of 0.36%.
CC1COCCN1c1cc(-c2ccnn2C)c2ccnc(-c3ccn[nH]3)c2n1 (stereo not drawn) + Cc1cnc(CNC(=O)c2c(=O)c3ccc(N4CCCN(C)CC4)nc3n3c2sc2ccccc23)cn1 was tested, and the IC50 (second compound 0.0316 µM) was under 0.0316 µM, the IC50 (second compound 0.1 µM) was under 0.0316 µM and the IC50 (second compound 0.316 µM) was under 0.0316 µM. For the same molecule, the IC50 (second compound 1 µM) was under 0.0316 µM, the IC50 (second compound 3.16 µM) was under 0.0316 µM and the IC50 (second compound 10 µM) was under 0.0316 µM. The viability, T/C [1] was 33.3%, the viability, T/C [2] was 10.8% and the viability, T/C [3] was 10.1%. It also gave a viability, T/C [4] of 11.2%, a viability, T/C [5] of 14.3% and a viability, T/C [6] of 20.8%. It also gave a viability, T/C [7] of 28.9%, a viability, T/C [8] of 12.6% and a viability, T/C [9] of 10.6%. The viability, T/C [10] was 10.2%, the viability, T/C [11] was 12.9% and the viability, T/C [12] was 15.9%. For the same molecule, the viability, T/C [13] was 29.5%, the viability, T/C [14] was 16.6% and the viability, T/C [15] was 13.1%. For the same molecule, the viability, T/C [16] was 11.2%, the viability, T/C [17] was 12% and the viability, T/C [18] was 14.7%. The viability, T/C [19] was 19.1%, the viability, T/C [20] was 14.2% and the viability, T/C [21] was 10.4%. It also gave a viability, T/C [22] of 9.64%, a viability, T/C [23] of 12.4% and a viability, T/C [24] of 10.6%. For the same molecule, the viability, T/C [25] was 18.9%, the viability, T/C [26] was 12.2% and the viability, T/C [27] was 11.1%. For the same molecule, the viability, T/C [28] was 8.14%, the viability, T/C [29] was 10.1% and the viability, T/C [30] was 8.5%. The viability, T/C [31] was 15.4%, the viability, T/C [32] was 12.7% and the viability, T/C [33] was 10.5%. For the same molecule, the viability, T/C [34] was 10.9%, the viability, T/C [35] was 7.61% and the viability, T/C [36] was 8.53%.
With CC1COCCN1c1cc(C2(S(C)(=N)=O)CC2)nc(-c2ccnc3[nH]ccc23)n1 (stereo not drawn) + Cc1cnc(CNC(=O)c2c(=O)c3ccc(N4CCCN(C)CC4)nc3n3c2sc2ccccc23)cn1 the IC50 (second compound 0.0316 µM) was 0.614 µM, the IC50 (second compound 0.1 µM) was 0.543 µM and the IC50 (second compound 0.316 µM) was under 0.0316 µM. For the same molecule, the IC50 (second compound 1 µM) was under 0.0316 µM, the IC50 (second compound 3.16 µM) was under 0.0316 µM and the IC50 (second compound 10 µM) was under 0.0316 µM. It also gave a viability, T/C [1] of 80.3%, a viability, T/C [2] of 86.1% and a viability, T/C [3] of 82.4%. The viability, T/C [4] was 26.1%, the viability, T/C [5] was 9.1% and the viability, T/C [6] was 10.6%. It also gave a viability, T/C [7] of 59.4%, a viability, T/C [8] of 60.2% and a viability, T/C [9] of 76.2%. For the same molecule, the viability, T/C [10] was 32.7%, the viability, T/C [11] was 12.3% and the viability, T/C [12] was 10.4%. For the same molecule, the viability, T/C [13] was 42.2%, the viability, T/C [14] was 46.2% and the viability, T/C [15] was 53.2%. For the same molecule, the viability, T/C [16] was 32.8%, the viability, T/C [17] was 13.7% and the viability, T/C [18] was 11.3%. The viability, T/C [19] was 31%, the viability, T/C [20] was 24.5% and the viability, T/C [21] was 23.4%. For the same molecule, the viability, T/C [22] was 23.7%, the viability, T/C [23] was 15.4% and the viability, T/C [24] was 11.1%. For the same molecule, the viability, T/C [25] was 21.3%, the viability, T/C [26] was 23.6% and the viability, T/C [27] was 21.5%. For the same molecule, the viability, T/C [28] was 19.3%, the viability, T/C [29] was 13.6% and the viability, T/C [30] was 9.15%. It also gave a viability, T/C [31] of 16.2%, a viability, T/C [32] of 19.1% and a viability, T/C [33] of 20.9%. For the same molecule, the viability, T/C [34] was 22.8%, the viability, T/C [35] was 14.3% and the viability, T/C [36] was 7.66%.
Work on COc1ccc([C@@H](O)c2cc(-c3ncnc4cc(N5CCOCC5)ccc34)c(F)cc2Cl)nn1 + Cc1cnc(CNC(=O)c2c(=O)c3ccc(N4CCCN(C)CC4)nc3n3c2sc2ccccc23)cn1 yielded an IC50 (second compound 0.0316 µM) of 0.292 µM, an IC50 (second compound 0.1 µM) of 0.225 µM and an IC50 (second compound 0.316 µM) of under 0.0316 µM. It also gave an IC50 (second compound 1 µM) of under 0.0316 µM, an IC50 (second compound 3.16 µM) of under 0.0316 µM and an IC50 (second compound 10 µM) of under 0.0316 µM. The viability, T/C [1] was 79.2%, the viability, T/C [2] was 62.5% and the viability, T/C [3] was 53.6%. The viability, T/C [4] was 30.4%, the viability, T/C [5] was 24.8% and the viability, T/C [6] was 25.6%. It also gave a viability, T/C [7] of 65.2%, a viability, T/C [8] of 56.8% and a viability, T/C [9] of 49.1%. It also gave a viability, T/C [10] of 31.7%, a viability, T/C [11] of 30.7% and a viability, T/C [12] of 20.9%. For the same molecule, the viability, T/C [13] was 37.4%, the viability, T/C [14] was 35.3% and the viability, T/C [15] was 37%. For the same molecule, the viability, T/C [16] was 24.5%, the viability, T/C [17] was 24.9% and the viability, T/C [18] was 18.3%. For the same molecule, the viability, T/C [19] was 21.7%, the viability, T/C [20] was 20.7% and the viability, T/C [21] was 18.4%. It also gave a viability, T/C [22] of 18.2%, a viability, T/C [23] of 18.8% and a viability, T/C [24] of 18.1%. It also gave a viability, T/C [25] of 19.5%, a viability, T/C [26] of 20.4% and a viability, T/C [27] of 18.3%. For the same molecule, the viability, T/C [28] was 16.9%, the viability, T/C [29] was 15.2% and the viability, T/C [30] was 12%. The viability, T/C [31] was 18.8%, the viability, T/C [32] was 18.6% and the viability, T/C [33] was 18.3%. It also gave a viability, T/C [34] of 16.8%, a viability, T/C [35] of 14.5% and a viability, T/C [36] of 11.6%.
